Reference: US6342245B1, “Compositions of lipid lowering agents” (Janssen Pharmaceutica N.V., priority 1997, dated 2002)

Test system: apolipoprotein B
Assay: Apolipoprotein B (apo B) inhibition test
Format: cell-based, human
Settings: Hep G2-cells; concentration needed to reduce apoB secretion to 50% of the control
Method: Cultured human liver cells (Hep G2-cells ) which synthesize and secrete low-density lipoproteins, were incubated overnight at 37° C. in a liquid medium containing radioactively labelled leucine. Thus radioactively labelled leucine was incorporated into the apolipoprotein B. The liquid medium was decanted and the apolipoprotein B was isolated by means of a double immunoprecipitation, i.e. first an apolipoprotein B-specific antibody (antibody1) was added to the liquid medium and subsequently a second antibody (antibody2) was added which binds specifically to the apoB-antibody1-complex. The thus formed apoB-antibody1-antibody2 complex precipitated and was isolated by centrifuge. Quantification of the amount of apolipoprotein B synthesized during the night resulted from measuring the radioactivity of the isolated complex. […] For each experiment the inhibition of apolipoprotein-B formation was expressed as [formula]
When more experiments were carried out for the same concentration, the median value of the inhibition calculated for these experiments was calculated. […]

- IC50: 23 nM
SMILES: CCC(C)n1ncn(-c2ccc(N3CCN(c4ccc(OC[C@H]5CO[C@](CSc6nncn6C)(c6ccc(Cl)cc6)O5)cc4)CC3)cc2)c1=O (relative stereo) [Compound 40, cis-4-[4-[4-[4-[[2-(4-chlorophenyl)-2-[[(4-methyl-4H-1,2,4-triazol-3-yl)thio]methyl]-1,3-dioxolan-4-yl]methoxy]phenyl]-1-piperazinyl]phenyl]-2,4-dihydro-2-(1-methyl-propyl)-3H-1,2,4-triazol-3-one]
